From EP4768487A1, “FUSED LACTAM RING COMPOUND AND USE THEREOF” (Chengdu Zenitar Biomedical Technology Co., Ltd., priority 2023, dated 2025) come the findings set out here.

Like-named read-outs stand apart in the source and are kept apart here. Bounds are passed on as bounds.

The target in one series is T1, PARP1 (Homo sapiens, UniProt P09874).
T1 construct: purchased BPS 80501
The series is described as follows: PARP1 enzyme assay (histone-coated plate, chemiluminescence). The series is classed as biochemical. The conditions noted are these: PARP1 0.02 nM, DNA 0.8 nM, NAD+ 3.5 µM; read-out: PARP-1 IC50.

The nature of series [1]: Cerebrospinal fluid and plasma distribution in vivo. The conditions noted are these: rat, male rats, intravenous 5 mg/kg, n = 1. As to the method: Experimental procedures: The compound was weighed out, a small amount of DMSO was added, and then a sodium chloride solution for injection was added to prepare a 5 mg·mL^-1 compound solution for later administration. […] 10 µL of the plasma and 10 µL of the cerebrospinal fluid were each added to a centrifuge tube, and 40 µL of acetonitrile containing 20 ng·mL^-1 internal standard SAHA was added for precipitation. […] The supernatant was collected and transferred to a sample vial for later analysis. Range of standard curve: 1-1000 ng·mL^-1.

In series [2] the test system is MDA-MB-436 breast cancer subcutaneous xenograft tumor model. The series is described as follows: In vivo pharmacodynamic study of compound 2 in MDA-MB-436 subcutaneous xenograft tumor model. The conditions noted are these: oral once daily, 30 days.
Procedure: Experimental process: Twenty-four female NOD/SCID mice were used in the experiment. […] All groups were subjected to oral administration once daily. Meanwhile, the mice were weighed every 2 days, and the length and width of the tumors were measured with a vernier caliper. After 30 days of administration, the tumor-bearing mice were anesthetized and sacrificed. The tumor tissues were dissected, weighed, and photographed, and the tumor growth inhibition rates were calculated.
Where [3] appears, read: cerebrospinal fluid, read-out: Cerebrospinal fluid.

T1 sequence (P09874 whole entry): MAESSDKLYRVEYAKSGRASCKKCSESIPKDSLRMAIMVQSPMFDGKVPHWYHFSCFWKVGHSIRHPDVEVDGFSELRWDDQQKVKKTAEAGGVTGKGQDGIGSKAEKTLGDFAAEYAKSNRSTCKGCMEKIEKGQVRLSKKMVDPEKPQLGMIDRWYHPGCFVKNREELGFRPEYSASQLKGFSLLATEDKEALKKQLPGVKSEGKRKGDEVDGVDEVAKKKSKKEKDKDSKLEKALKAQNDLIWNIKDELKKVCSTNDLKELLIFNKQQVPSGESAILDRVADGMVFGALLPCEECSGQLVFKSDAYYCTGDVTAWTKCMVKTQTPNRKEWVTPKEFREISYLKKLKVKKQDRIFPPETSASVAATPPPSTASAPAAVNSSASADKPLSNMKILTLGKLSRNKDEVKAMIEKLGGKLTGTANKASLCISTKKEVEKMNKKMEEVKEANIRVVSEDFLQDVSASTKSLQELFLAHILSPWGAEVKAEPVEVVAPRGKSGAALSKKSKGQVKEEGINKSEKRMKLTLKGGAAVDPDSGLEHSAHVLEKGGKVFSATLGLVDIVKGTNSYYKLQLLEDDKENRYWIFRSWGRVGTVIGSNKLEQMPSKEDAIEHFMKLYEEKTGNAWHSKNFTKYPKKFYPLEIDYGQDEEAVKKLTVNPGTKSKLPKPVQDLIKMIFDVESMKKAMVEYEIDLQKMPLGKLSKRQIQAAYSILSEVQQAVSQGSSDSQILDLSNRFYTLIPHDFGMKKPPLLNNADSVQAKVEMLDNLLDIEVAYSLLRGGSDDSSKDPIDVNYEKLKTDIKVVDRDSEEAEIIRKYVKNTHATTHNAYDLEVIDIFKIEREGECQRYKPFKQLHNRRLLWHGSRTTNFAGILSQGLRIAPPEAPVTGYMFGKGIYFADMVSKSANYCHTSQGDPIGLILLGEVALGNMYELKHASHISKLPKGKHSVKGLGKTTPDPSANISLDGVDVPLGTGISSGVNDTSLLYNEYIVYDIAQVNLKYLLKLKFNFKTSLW

Turning to `CNC(=O)c1ccc(N2CCN(CC3Cc4[nH]c(=O)c(C)cc4CO3)CC2)c(Cl)n1` (centres unmarked) [Example 74, 6-Chloro-N-methyl-5-(4-((3-methyl-2-oxo-1,5,7,8-tetrahydro-2H-pyrano[4,3-b]pyridin-7-yl)methyl)piperazin-1-yl)picolinamide], the IC50 at PARP1 is no more than 50 nM. In series [1] (setting [3]), the concentration at 0.25 h is 60 ng/g and the concentration at 2 h was found to be 19 ng/g. In series [1] (plasma, read-out: Plasma), the concentration at 0.25 h was determined as 8790 ng/mL and the concentration at 2 h was 5560 ng/mL.
As to `CCc1cc2c([nH]c1=O)CC(CN1CCN(c3ccc(C(=O)NC)nc3F)CC1)OC2` (centres unmarked) [Compound 2, 5-(4-((3-Ethyl-2-oxo-1,5,7,8-tetrahydro-2H-pyrano[4,3-b]pyridin-7-yl)methyl)piperazin-1-yl)-6-fluoro-N-methyl picolinamide], the “tumor growth inhibition rate” value in series [2] (1 mg/kg) was 92.61%. In addition, in series [2] (3 mg/kg), the “tumor growth inhibition rate” value is recorded as 95.74% and the “tumor inhibitory effect compared with the reference drug Olaparib 100 mg/kg group (in words)” value is listed as “significantly superior”.
